Calls of active or inactive are those of the source. The calls are words filed in the database; no cut-off is given here.
Experiments:
[1] = test system: Hep 3B2; assay: Antiproliferative activity against human Hep3B cells assessed as viable cell signal at maximum growth inhibition incubated for 72 hrs by celltiter-glo assay relative to control; format: functional
[2] = biological target: Cyclin-dependent kinase 1/cyclin B1 (Homo sapiens) (UniProt P06493+P14635); assay: Inhibition of C-terminal his6-tagged recombinant human CDK1/full length N-terminal GST-tagged recombinant human cyclin B expressed in baculovirus Sf21 insect cells at 10 uM relative to control
[3] = test system: NCI-H358; assay: Antiproliferative activity against human NCI-H358 cells assessed as growth inhibition incubated for 72 hrs by celltiter-glo assay; format: functional
[4] = test system: PANC-08-13; assay: Antiproliferative activity against human PANC-08-13 cells assessed as viable cell signal at maximum growth inhibition incubated for 72 hrs by celltiter-glo assay relative to control; format: functional
[5] = test system: SK-MEL-28; assay: Antiproliferative activity against human SK-MEL-28 cells assessed as of viable cell signal at minimum maximum cell growth incubated for 72 hrs by celltiter-glo assay relative to control; format: functional
[6] = test system: HeLa; assay: Antiproliferative activity against human HeLa cells assessed as of viable cell signal at minimum maximum cell growth incubated for 72 hrs by celltiter-glo assay relative to control; format: functional
[7] = test system: MX1; assay: Antiproliferative activity against human MX1 cells assessed as viable cell signal at maximum growth inhibition incubated for 72 hrs by celltiter-glo assay relative to control; format: functional
[8] = test system: COLO 205; assay: Antitumor activity against human COLO 205 cells xenografted in Nude mouse assessed as tumor regression at 50 mg/kg, ip administered for 12 days; format: functional, organism-based; conditions: time 12.0 day
[9] = biological target: Ribosomal protein S6 kinase alpha-1 (Rattus norvegicus) (UniProt Q63531); assay: Inhibition of recombinant rat RSK1 at 10 uM relative to control
[10] = test system: T-24; assay: Antiproliferative activity against human T24 cells assessed as of viable cell signal at minimum maximum cell growth incubated for 72 hrs by celltiter-glo assay relative to control; format: functional
[11] = test system: LoVo; assay: Antiproliferative activity against human LoVo cells assessed as viable cell signal at maximum growth inhibition incubated for 72 hrs by celltiter-glo assay relative to control; format: functional
[12] = test system: NCI-H82; assay: Antiproliferative activity against human NCI-H82 cells assessed as growth inhibition incubated for 72 hrs by celltiter-glo assay; format: functional
[13] = test system: A498; assay: Antiproliferative activity against human A498 cells assessed as growth inhibition incubated for 72 hrs by celltiter-glo assay; format: functional
[14] = Antiproliferative activity against human A375P cells assessed as of viable cell signal at minimum maximum cell growth incubated for 72 hrs by celltiter-glo assay relative to control; format: functional
[15] = test system: SK-MEL-2; assay: Antiproliferative activity against human SK-MEL-2 cells assessed as growth inhibition incubated for 72 hrs by celltiter-glo assay; format: functional
[16] = biological target: PAS domain-containing serine/threonine-protein kinase (Homo sapiens) (UniProt Q96RG2); assay: Inhibition of recombinant human PASK at 10 uM relative to control
[17] = test system: T-24; assay: Antiproliferative activity against human T24 cells assessed as viable cell signal at maximum growth inhibition incubated for 72 hrs by celltiter-glo assay relative to control; format: functional
[18] = test system: U2OS; assay: Induction of mitotic arrest in human U2OS cells expressing fused cyclin B1-GFP at > 250 nmol/L incubated for 48 hrs by image based analysis; format: functional, cell-based
[19] = test system: A549; assay: Induction of mitotic arrest in human A549 cells assessed as effect on pHH3 level at 10 to 250 nmol/L incubated for 19 hrs by ELISA analysis; format: functional, cell-based; conditions: dose 10-250 nmol/L
[20] = test system: COLO 205; assay: Antitumor activity against human COLO 205 cells xenografted in Nude mouse assessed as disorganized condense chromatin at 50 to 100 mg/kg, ip measured at 24 to 48 hrs by H and E staining based analysis; format: functional, organism-based; conditions: dose 50-100 mg/kg, time 24-48 hrs
[21] = test system: SJSA-1; assay: Antiproliferative activity against human SJSA-1 cells assessed as viable cell signal at maximum growth inhibition incubated for 72 hrs by celltiter-glo assay relative to control; format: functional
[22] = test system: SW-620; assay: Antiproliferative activity against human SW620 cells assessed as viable cell signal at maximum growth inhibition incubated for 72 hrs by celltiter-glo assay relative to control; format: functional
[23] = test system: U-87 MG; assay: Antiproliferative activity against human U-87 MG cells assessed as growth inhibition incubated for 72 hrs by celltiter-glo assay; format: functional, U-87MG ATCC
[24] = test system: OVCAR-4; assay: Antiproliferative activity against human OVCAR-4 cells assessed as growth inhibition incubated for 72 hrs by celltiter-glo assay; format: functional
[25] = test system: ASPC1; assay: Antiproliferative activity against human ASPC1 cells assessed as growth inhibition incubated for 72 hrs by celltiter-glo assay; format: functional
[26] = test system: SK-MEL-5; assay: Antiproliferative activity against human SK-MEL-5 cells assessed as growth inhibition incubated for 72 hrs by celltiter-glo assay; format: functional
[27] = test system: HCC1954; assay: Antiproliferative activity against human HCC1954 cells assessed as of viable cell signal at minimum maximum cell growth incubated for 72 hrs by celltiter-glo assay relative to control; format: functional
[28] = test system: MDA-MB-453; assay: Antiproliferative activity against human MDA-MB-453 cells assessed as viable cell signal at maximum growth inhibition incubated for 72 hrs by celltiter-glo assay relative to control; format: functional
[29] = test system: Raji; assay: Antiproliferative activity against human Raji cells assessed as growth inhibition incubated for 72 hrs by celltiter-glo assay; format: functional
[30] = test system: RKO; assay: Antiproliferative activity against human RKO cells assessed as growth inhibition incubated for 72 hrs by celltiter-glo assay; format: functional
[31] = test system: HN5; assay: Antiproliferative activity against human HN5 cells assessed as viable cell signal at maximum growth inhibition incubated for 72 hrs by celltiter-glo assay relative to control; format: functional
[32] = test system: A704; assay: Antiproliferative activity against human A704 cells assessed as growth inhibition incubated for 72 hrs by celltiter-glo assay; format: functional
[33] = test system: HCT-116; assay: Antiproliferative activity against human HCT-116 cells assessed as of viable cell signal at minimum maximum cell growth incubated for 72 hrs by celltiter-glo assay relative to control; format: functional
[34] = test system: SAOS-2; assay: Antiproliferative activity against human SAOS-2 cells assessed as viable cell signal at maximum growth inhibition incubated for 72 hrs by celltiter-glo assay relative to control; format: functional
[35] = test system: U2OS; assay: Induction of mitotic arrest in human U2OS cells expressing fused cyclin B1-GFP at 10 to 250 nmol/L incubated for 24 hrs by image based analysis; format: functional, cell-based; conditions: dose 10-250 nmol/L
[36] = test system: PANC-08-13; assay: Antiproliferative activity against human PANC-08-13 cells assessed as of viable cell signal at minimum maximum cell growth incubated for 72 hrs by celltiter-glo assay relative to control; format: functional
[37] = test system: SK-OV-3; assay: Antiproliferative activity against human SK-OV-3 cells assessed as growth inhibition incubated for 72 hrs by celltiter-glo assay; format: functional
[38] = test system: U2OS; assay: Antiproliferative activity against human U2OS cells assessed as growth inhibition incubated for 72 hrs by celltiter-glo assay; format: functional
[39] = test system: NCI-H1155; assay: Antiproliferative activity against human NCI-H1155 cells assessed as of viable cell signal at minimum maximum cell growth incubated for 72 hrs by celltiter-glo assay relative to control; format: functional
[40] = test system: Calu-1; assay: Antiproliferative activity against human Calu-1 cells assessed as of viable cell signal at minimum maximum cell growth incubated for 72 hrs by celltiter-glo assay relative to control; format: functional
[41] = test system: NCI-N87; assay: Antiproliferative activity against human NCI-N87 cells assessed as growth inhibition incubated for 72 hrs by celltiter-glo assay; format: functional

Chain of PAS domain-containing serine/threonine-protein kinase (Homo sapiens) (Q96RG2 whole entry, the tested form may be a part): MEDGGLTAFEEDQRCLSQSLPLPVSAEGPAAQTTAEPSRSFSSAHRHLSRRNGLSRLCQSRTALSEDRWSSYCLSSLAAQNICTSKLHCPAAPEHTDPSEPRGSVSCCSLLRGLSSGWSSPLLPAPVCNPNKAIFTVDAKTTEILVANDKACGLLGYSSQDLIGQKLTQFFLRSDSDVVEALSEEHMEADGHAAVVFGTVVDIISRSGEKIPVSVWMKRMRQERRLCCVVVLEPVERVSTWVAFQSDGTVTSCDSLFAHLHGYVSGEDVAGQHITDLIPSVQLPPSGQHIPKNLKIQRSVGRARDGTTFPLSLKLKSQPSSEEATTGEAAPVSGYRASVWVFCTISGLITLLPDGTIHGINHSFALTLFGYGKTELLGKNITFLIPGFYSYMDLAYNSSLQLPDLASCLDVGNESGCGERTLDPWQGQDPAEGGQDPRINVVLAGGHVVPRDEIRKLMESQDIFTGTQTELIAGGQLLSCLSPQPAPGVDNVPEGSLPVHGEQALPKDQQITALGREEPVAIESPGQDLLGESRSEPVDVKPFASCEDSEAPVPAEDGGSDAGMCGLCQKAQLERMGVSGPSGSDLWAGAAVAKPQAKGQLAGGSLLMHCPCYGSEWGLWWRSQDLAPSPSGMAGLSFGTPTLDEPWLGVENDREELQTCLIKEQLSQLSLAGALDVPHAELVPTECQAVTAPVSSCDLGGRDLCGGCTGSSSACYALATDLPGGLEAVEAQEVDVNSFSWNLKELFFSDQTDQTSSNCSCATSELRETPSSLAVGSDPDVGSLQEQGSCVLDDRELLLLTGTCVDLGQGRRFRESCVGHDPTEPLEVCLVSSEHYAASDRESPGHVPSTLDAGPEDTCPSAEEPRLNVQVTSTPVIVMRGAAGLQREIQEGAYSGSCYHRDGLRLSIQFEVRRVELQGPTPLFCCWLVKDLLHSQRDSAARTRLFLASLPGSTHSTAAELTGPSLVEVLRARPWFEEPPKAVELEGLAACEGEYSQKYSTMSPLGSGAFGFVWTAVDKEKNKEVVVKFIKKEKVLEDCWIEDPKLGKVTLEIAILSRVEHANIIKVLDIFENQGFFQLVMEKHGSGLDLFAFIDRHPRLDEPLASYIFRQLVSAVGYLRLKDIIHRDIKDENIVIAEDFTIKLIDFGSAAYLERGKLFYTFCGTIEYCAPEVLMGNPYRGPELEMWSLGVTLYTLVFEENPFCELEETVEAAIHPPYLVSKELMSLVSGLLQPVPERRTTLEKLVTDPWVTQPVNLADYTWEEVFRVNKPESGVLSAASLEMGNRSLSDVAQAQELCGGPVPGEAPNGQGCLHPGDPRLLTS
Chain of Ribosomal protein S6 kinase alpha-1 (Rattus norvegicus) (Q63531 whole entry): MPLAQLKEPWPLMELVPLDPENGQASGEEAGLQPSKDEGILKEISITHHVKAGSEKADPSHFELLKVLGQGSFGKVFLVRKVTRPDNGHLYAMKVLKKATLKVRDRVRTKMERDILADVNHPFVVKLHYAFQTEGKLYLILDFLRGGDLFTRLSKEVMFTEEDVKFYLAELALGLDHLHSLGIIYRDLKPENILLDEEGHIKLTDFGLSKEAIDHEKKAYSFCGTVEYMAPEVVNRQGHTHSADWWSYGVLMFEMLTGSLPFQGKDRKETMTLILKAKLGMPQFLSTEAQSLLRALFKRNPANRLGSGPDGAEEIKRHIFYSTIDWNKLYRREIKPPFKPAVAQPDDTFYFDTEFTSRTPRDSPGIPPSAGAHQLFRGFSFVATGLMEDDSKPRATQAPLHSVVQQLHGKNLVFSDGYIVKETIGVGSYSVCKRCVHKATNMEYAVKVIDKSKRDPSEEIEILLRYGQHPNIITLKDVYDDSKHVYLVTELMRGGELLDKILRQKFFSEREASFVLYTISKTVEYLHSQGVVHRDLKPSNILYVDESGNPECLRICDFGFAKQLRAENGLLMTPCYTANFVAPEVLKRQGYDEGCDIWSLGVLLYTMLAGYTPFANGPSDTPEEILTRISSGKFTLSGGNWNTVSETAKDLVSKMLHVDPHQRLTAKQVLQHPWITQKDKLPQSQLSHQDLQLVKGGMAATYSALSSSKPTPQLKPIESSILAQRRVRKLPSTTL
Chain of Cyclin-dependent kinase 1/cyclin B1 (Homo sapiens) (P06493 whole entry, looked up): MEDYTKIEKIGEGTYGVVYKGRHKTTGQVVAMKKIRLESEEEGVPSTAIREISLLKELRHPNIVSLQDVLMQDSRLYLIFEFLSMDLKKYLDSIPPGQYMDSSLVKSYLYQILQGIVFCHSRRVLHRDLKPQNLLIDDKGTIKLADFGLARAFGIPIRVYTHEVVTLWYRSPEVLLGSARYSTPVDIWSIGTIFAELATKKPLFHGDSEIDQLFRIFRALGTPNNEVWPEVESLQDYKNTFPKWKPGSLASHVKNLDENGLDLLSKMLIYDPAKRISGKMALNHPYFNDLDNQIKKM
Chain of Cyclin-dependent kinase 1/cyclin B1 (Homo sapiens) (P14635 whole entry, looked up): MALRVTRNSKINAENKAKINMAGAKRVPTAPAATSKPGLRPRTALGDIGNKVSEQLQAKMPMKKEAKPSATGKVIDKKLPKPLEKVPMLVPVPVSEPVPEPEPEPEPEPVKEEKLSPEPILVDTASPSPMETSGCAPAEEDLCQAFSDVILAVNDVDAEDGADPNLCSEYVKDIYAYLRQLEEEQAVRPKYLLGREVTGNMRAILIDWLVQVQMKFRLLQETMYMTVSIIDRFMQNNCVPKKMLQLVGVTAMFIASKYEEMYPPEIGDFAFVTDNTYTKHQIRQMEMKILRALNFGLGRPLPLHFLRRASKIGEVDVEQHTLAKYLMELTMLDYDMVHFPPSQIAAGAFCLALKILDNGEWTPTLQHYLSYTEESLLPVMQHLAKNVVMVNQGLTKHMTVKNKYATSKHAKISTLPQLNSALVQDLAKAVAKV

SMILES: C[C@@H](Oc1cc(-n2cnc3ccc(CN4CCN(C)CC4)cc32)sc1C(N)=O)c1ccccc1C(F)(F)F [GSK-461364]
- Emax [1]: 220%
- inhibition [2]: 66%
- GI50 [3]: 0.0134 µM
- Emax [4]: 256%
- Emin [5]: 199.6%
- Emin [6]: 32.2%
- Emax [7]: 498%
- Activity [8]: Active
- inhibition [9]: 87%
- Emin [10]: 109%
- Emax [11]: 400%
- GI50 [12]: 0.00485 µM
- GI50 [13]: 0.0404 µM
- Emin [14]: 220.5%
- GI50 [15]: 0.014 µM
- inhibition [16]: 63%
- Emax [17]: 692%
- Activity [18]: Active
- Activity [19]: Active
- Activity [20]: Active
- Emax [21]: 791%
- Emax [22]: 634%
- GI50 [23]: 0.00745 µM
- GI50 [24]: 0.0243 µM
- GI50 [25]: 0.0223 µM
- GI50 [26]: 0.0284 µM
- Emin [27]: 90.9%
- Emax [28]: 489%
- GI50 [29]: 0.0253 µM
- GI50 [30]: 0.0629 µM
- Emax [31]: 812%
- GI50 [32]: 0.183 µM
- Emin [33]: 157.3%
- Emax [34]: 403%
- Activity [35]: inactive
- Emin [36]: 131.3%
- GI50 [37]: 0.0289 µM
- GI50 [38]: 0.0417 µM
- Emin [39]: 119.2%
- Emin [40]: 179.8%
- GI50 [41]: 0.0215 µM

Source: ChEMBL document CHEMBL5705887, “Distinct concentration-dependent effects of the polo-like kinase 1-specific inhibitor GSK461364A, including differential effect on apoptosis” (Cancer Res, 2009)
